In ChEMBL document CHEMBL1649226, “Species identification and antifungal susceptibility patterns of species belonging to Aspergillus section Nigri” (2009):
In brackets after ≈: the same amount, converted by molar mass.

Assays:
Type in all cases: functional
[1] = test system: Aspergillus niger; assay: Antifungal activity against Aspergillus niger isolate CM-4213 obtained from respiratory tract infection of patient after 48 hrs by EUCAST broth dilution method; settings: isolate CM-4213, 48 h
[2] = test system: Aspergillus tubingensis; assay: Antifungal activity against Aspergillus tubingensis isolate CM-4352 obtained from respiratory tract infection of patient after 48 hrs by EUCAST broth dilution method; settings: isolate CM-4352, 48 h
[3] = test system: Aspergillus tubingensis; assay: Antifungal activity against Aspergillus tubingensis isolate CM-4003 after 48 hrs by EUCAST broth dilution method; settings: isolate CM-4003, 48 h
[4] = test system: Aspergillus niger; assay: Antifungal activity against Aspergillus niger isolate CM-3236 obtained from respiratory tract infection of patient after 48 hrs by EUCAST broth dilution method; settings: isolate CM-3236, 48 h
[5] = test system: Aspergillus niger; assay: Antifungal activity against Aspergillus niger isolate CM-3551 obtained from respiratory tract infection of patient after 48 hrs by EUCAST broth dilution method; settings: isolate CM-3551, 48 h
[6] = test system: Aspergillus tubingensis; assay: Antifungal activity against Aspergillus tubingensis isolate CM-4000 after 48 hrs by EUCAST broth dilution method; settings: isolate CM-4000, 48 h
[7] = test system: Aspergillus tubingensis; assay: Antifungal activity against Aspergillus tubingensis isolate CM-3125 obtained from respiratory tract infection of patient after 48 hrs by EUCAST broth dilution method; settings: isolate CM-3125, 48 h
[8] = test system: Aspergillus niger; assay: Antifungal activity against Aspergillus niger isolate CM-4262 after 48 hrs by EUCAST broth dilution method Ophthalmic; settings: isolate CM-4262, 48 h
[9] = test system: Aspergillus niger; assay: Antifungal activity against Aspergillus niger isolate CM-3506 obtained from respiratory tract infection of patient after 48 hrs by EUCAST broth dilution method; settings: isolate CM-3506, 48 h
[10] = test system: Aspergillus tubingensis; assay: Antifungal activity against Aspergillus tubingensis isolate CM-3654 obtained from blood culture after 48 hrs by EUCAST broth dilution method; settings: isolate CM-3654, 48 h
[11] = test system: Aspergillus niger; assay: Antifungal activity against Aspergillus niger isolate CM-3636 obtained from respiratory tract infection of patient after 48 hrs by EUCAST broth dilution method; settings: isolate CM-3636, 48 h
[12] = test system: Aspergillus tubingensis; assay: Antifungal activity against Aspergillus tubingensis isolate CM-3123 obtained from respiratory tract infection of patient after 48 hrs by EUCAST broth dilution method; settings: isolate CM-3123, 48 h
[13] = test system: Aspergillus niger; assay: Antifungal activity against Aspergillus niger isolate CM-3586 obtained from catheter of patient after 48 hrs by EUCAST broth dilution method; settings: isolate CM-3586, 48 h
[14] = test system: Aspergillus tubingensis; assay: Antifungal activity against Aspergillus tubingensis isolate CM-4296 obtained from respiratory tract infection of patient after 48 hrs by EUCAST broth dilution method; settings: isolate CM-4296, 48 h
[15] = test system: Aspergillus tubingensis; assay: Antifungal activity against Aspergillus tubingensis isolate CM-4897 obtained from blood culture after 48 hrs by EUCAST broth dilution method; settings: isolate CM-4897, 48 h
[16] = test system: Aspergillus tubingensis; assay: Antifungal activity against Aspergillus tubingensis isolate CM-3507 obtained from respiratory tract infection of patient after 48 hrs by EUCAST broth dilution method; settings: isolate CM-3507, 48 h
[17] = test system: Aspergillus tubingensis; assay: Antifungal activity against Aspergillus tubingensis isolate CM-5094 obtained from respiratory tract infection of patient after 48 hrs by EUCAST broth dilution method; settings: isolate CM-5094, 48 h
[18] = test system: Aspergillus foetidus; assay: Antifungal activity against Aspergillus foetidus isolate CM-4002 after 48 hrs by EUCAST broth dilution method; settings: isolate CM-4002, 48 h
[19] = test system: Aspergillus foetidus; assay: Antifungal activity against Aspergillus foetidus isolate CM-4995 obtained from prosthesis after 48 hrs by EUCAST broth dilution method; settings: isolate CM-4995, 48 h
[20] = test system: Aspergillus tubingensis; assay: Antifungal activity against Aspergillus tubingensis isolate CM-3585 after 48 hrs by EUCAST broth dilution method; settings: isolate CM-3585, 48 h
[21] = test system: Aspergillus tubingensis; assay: Antifungal activity against Aspergillus tubingensis isolate CM-4688 obtained from respiratory tract infection of patient after 48 hrs by EUCAST broth dilution method; settings: isolate CM-4688, 48 h
[22] = test system: Aspergillus tubingensis; assay: Antifungal activity against Aspergillus tubingensis isolate CM-4264 obtained from blood culture after 48 hrs by EUCAST broth dilution method; settings: isolate CM-4264, 48 h
[23] = test system: Aspergillus tubingensis; assay: Antifungal activity against Aspergillus tubingensis isolate CM-4001 after 48 hrs by EUCAST broth dilution method; settings: isolate CM-4001, 48 h
[24] = test system: Aspergillus tubingensis; assay: Antifungal activity against Aspergillus tubingensis isolate CM-3177 obtained from respiratory tract infection of patient after 48 hrs by EUCAST broth dilution method; settings: isolate CM-3177, 48 h
[25] = test system: Aspergillus niger; assay: Antifungal activity against Aspergillus niger isolate CM-4004 obtained from after 48 hrs by EUCAST broth dilution method; settings: isolate CM-4004, 48 h
[26] = test system: Aspergillus tubingensis; assay: Antifungal activity against Aspergillus tubingensis isolate CM-3810 obtained from respiratory tract infection of patient after 48 hrs by EUCAST broth dilution method; settings: isolate CM-3810, 48 h
[27] = test system: Aspergillus foetidus; assay: Antifungal activity against Aspergillus foetidus isolate CM-5264 obtained from respiratory tract infection of patient after 48 hrs by EUCAST broth dilution method; settings: isolate CM-5264, 48 h
[28] = test system: Aspergillus niger; assay: Antifungal activity against Aspergillus niger isolate CM-3641 obtained from respiratory tract infection of patient after 48 hrs by EUCAST broth dilution method; settings: isolate CM-3641, 48 h
[29] = test system: Aspergillus tubingensis; assay: Antifungal activity against Aspergillus tubingensis isolate CM-4005 after 48 hrs by EUCAST broth dilution method; settings: isolate CM-4005, 48 h
[30] = test system: Aspergillus niger; assay: Antifungal activity against Aspergillus niger isolate CM-5095 obtained from respiratory tract infection of patient after 48 hrs by EUCAST broth dilution method; settings: isolate CM-5095, 48 h
[31] = test system: Aspergillus niger; assay: Antifungal activity against Aspergillus niger isolate CM-4316 obtained from respiratory tract infection of patient after 48 hrs by EUCAST broth dilution method; settings: isolate CM-4316, 48 h
[32] = test system: Aspergillus tubingensis; assay: Antifungal activity against Aspergillus tubingensis isolate CM-4899 obtained from respiratory tract infection of patient after 48 hrs by EUCAST broth dilution method; settings: isolate CM-4899, 48 h
[33] = test system: Aspergillus niger; assay: Antifungal activity against Aspergillus niger isolate CM-3672 obtained from cutaneous layer of patient after 48 hrs by EUCAST broth dilution method; settings: isolate CM-3672, 48 h
[34] = test system: Aspergillus niger; assay: Antifungal activity against Aspergillus niger isolate CM-3257 obtained from respiratory tract infection of patient after 48 hrs by EUCAST broth dilution method; settings: isolate CM-3257, 48 h

| MIC [1] | MIC [2] | MIC [3] | MIC [4] | MIC [5] | MIC [6] | MIC [7] | MIC [8] | MIC [9] | MIC [10] | MIC [11] | MIC [12] | MIC [13] | MIC [14] | MIC [15] | MIC [16] | MIC [17] | MIC [18] | MIC [19] | MIC [20] | Structure (SMILES) | other results |
| --- | --- | --- | --- | --- | --- | --- | --- | --- | --- | --- | --- | --- | --- | --- | --- | --- | --- | --- | --- | --- | --- |
| 0.58 µg/mL (≈ 1.33 µM) | 2 µg/mL (≈ 4.57 µM) | 4 µg/mL (≈ 9.14 µM) | 1 µg/mL (≈ 2.29 µM) | 2 µg/mL (≈ 4.57 µM) | 2 µg/mL (≈ 4.57 µM) | 1.67 µg/mL (≈ 3.82 µM) | 2 µg/mL (≈ 4.57 µM) | 1 µg/mL (≈ 2.29 µM) | 2.5 µg/mL (≈ 5.71 µM) | 1 µg/mL (≈ 2.29 µM) | 2.67 µg/mL (≈ 6.1 µM) | 2 µg/mL (≈ 4.57 µM) | 1.5 µg/mL (≈ 3.43 µM) | 2 µg/mL (≈ 4.57 µM) | 1.5 µg/mL (≈ 3.43 µM) | 2 µg/mL (≈ 4.57 µM) | 2.67 µg/mL (≈ 6.1 µM) | 2 µg/mL (≈ 4.57 µM) | 1.67 µg/mL (≈ 3.82 µM) | C[C@@H](c1nc(-c2ccc(C#N)cc2)cs1)[C@](O)(Cn1cncn1)c1ccc(F)cc1F [RAVUCONAZOLE] | MIC [21]: 3.33 µg/mL (≈ 7.61 µM); MIC [22]: 1.5 µg/mL (≈ 3.43 µM); MIC [23]: 2.5 µg/mL (≈ 5.71 µM); MIC [24]: 3.33 µg/mL (≈ 7.61 µM); MIC [25]: 1.67 µg/mL (≈ 3.82 µM); MIC [26]: 2 µg/mL (≈ 4.57 µM); MIC [27]: 8 µg/mL (≈ 18.3 µM); MIC [28]: 1 µg/mL (≈ 2.29 µM); MIC [29]: 4 µg/mL (≈ 9.14 µM); MIC [30]: 1.5 µg/mL (≈ 3.43 µM); MIC [31]: 1 µg/mL (≈ 2.29 µM); MIC [32]: 2.67 µg/mL (≈ 6.1 µM); MIC [33]: 1.5 µg/mL (≈ 3.43 µM); MIC [34]: 1 µg/mL (≈ 2.29 µM) |
| 0.22 µg/mL (≈ 0.755 µM) | 0.31 µg/mL (≈ 1.06 µM) | 1 µg/mL (≈ 3.43 µM) | 1 µg/mL (≈ 3.43 µM) | 0.25 µg/mL (≈ 0.858 µM) | 0.33 µg/mL (≈ 1.13 µM) | 0.5 µg/mL (≈ 1.72 µM) | 0.29 µg/mL (≈ 0.995 µM) | 0.31 µg/mL (≈ 1.06 µM) | 0.63 µg/mL (≈ 2.16 µM) | 1 µg/mL (≈ 3.43 µM) | 1.17 µg/mL (≈ 4.01 µM) | 0.12 µg/mL (≈ 0.412 µM) | 0.62 µg/mL (≈ 2.13 µM) | 0.42 µg/mL (≈ 1.44 µM) | 0.62 µg/mL (≈ 2.13 µM) | 0.62 µg/mL (≈ 2.13 µM) | 0.33 µg/mL (≈ 1.13 µM) | 0.33 µg/mL (≈ 1.13 µM) | 0.42 µg/mL (≈ 1.44 µM) | CN(C/C=C/C#CC(C)(C)C)Cc1cccc2ccccc12 [TERBINAFINE] | MIC [21]: 1.5 µg/mL (≈ 5.15 µM); MIC [22]: 0.5 µg/mL (≈ 1.72 µM); MIC [23]: 0.56 µg/mL (≈ 1.92 µM); MIC [24]: 0.67 µg/mL (≈ 2.3 µM); MIC [25]: 0.13 µg/mL (≈ 0.446 µM); MIC [26]: 1 µg/mL (≈ 3.43 µM); MIC [27]: 0.5 µg/mL (≈ 1.72 µM); MIC [28]: 0.25 µg/mL (≈ 0.858 µM); MIC [29]: 0.25 µg/mL (≈ 0.858 µM); MIC [30]: 0.62 µg/mL (≈ 2.13 µM); MIC [31]: 0.5 µg/mL (≈ 1.72 µM); MIC [32]: 0.33 µg/mL (≈ 1.13 µM); MIC [33]: 0.07 µg/mL (≈ 0.24 µM); MIC [34]: 1 µg/mL (≈ 3.43 µM) |

| Structure (SMILES) | MIC [1] | MIC [2] | MIC [3] | MIC [4] | MIC [5] | MIC [6] | MIC [7] | MIC [8] | MIC [9] | MIC [10] | MIC [11] | MIC [12] | MIC [13] | MIC [14] | MIC [15] | MIC [16] | MIC [17] | MIC [18] | MIC [19] | MIC [20] | other results |
| --- | --- | --- | --- | --- | --- | --- | --- | --- | --- | --- | --- | --- | --- | --- | --- | --- | --- | --- | --- | --- | --- |
| C[C@@H](c1ncncc1F)[C@](O)(Cn1cncn1)c1ccc(F)cc1F [VORICONAZOLE] | 0.33 µg/mL (≈ 0.945 µM) | 0.88 µg/mL (≈ 2.52 µM) | 2 µg/mL (≈ 5.73 µM) | 0.5 µg/mL (≈ 1.43 µM) | 1 µg/mL (≈ 2.86 µM) | 2 µg/mL (≈ 5.73 µM) | 1 µg/mL (≈ 2.86 µM) | 2 µg/mL (≈ 5.73 µM) | 0.75 µg/mL (≈ 2.15 µM) | 2 µg/mL (≈ 5.73 µM) | 0.5 µg/mL (≈ 1.43 µM) | 1.67 µg/mL (≈ 4.78 µM) | 1 µg/mL (≈ 2.86 µM) | 1 µg/mL (≈ 2.86 µM) | 2 µg/mL (≈ 5.73 µM) | 1 µg/mL (≈ 2.86 µM) | 0.75 µg/mL (≈ 2.15 µM) | 2 µg/mL (≈ 5.73 µM) | 2 µg/mL (≈ 5.73 µM) | 1 µg/mL (≈ 2.86 µM) | MIC [21]: 2 µg/mL (≈ 5.73 µM); MIC [22]: 1 µg/mL (≈ 2.86 µM); MIC [23]: 1.75 µg/mL (≈ 5.01 µM); MIC [24]: 2 µg/mL (≈ 5.73 µM); MIC [25]: 1 µg/mL (≈ 2.86 µM); MIC [26]: 2 µg/mL (≈ 5.73 µM); MIC [27]: 2 µg/mL (≈ 5.73 µM); MIC [28]: 1 µg/mL (≈ 2.86 µM); MIC [29]: 2 µg/mL (≈ 5.73 µM); MIC [30]: 0.75 µg/mL (≈ 2.15 µM); MIC [31]: 0.5 µg/mL (≈ 1.43 µM); MIC [32]: 2 µg/mL (≈ 5.73 µM); MIC [33]: 1 µg/mL (≈ 2.86 µM); MIC [34]: 1 µg/mL (≈ 2.86 µM) |
